Each block holds one compound with its values, some of them ahead of it.
Experiments:
[1] = biological target: Muscarinic acetylcholine receptor M3 (Homo sapiens, UniProt P20309); assay: Inhibition of M3 receptor (unknown origin)
[2] = biological target: T1, Muscarinic acetylcholine receptor M2 (Homo sapiens, UniProt P08172); assay: Inhibition of M2 receptor (unknown origin)
T1 sequence (P08172 whole entry): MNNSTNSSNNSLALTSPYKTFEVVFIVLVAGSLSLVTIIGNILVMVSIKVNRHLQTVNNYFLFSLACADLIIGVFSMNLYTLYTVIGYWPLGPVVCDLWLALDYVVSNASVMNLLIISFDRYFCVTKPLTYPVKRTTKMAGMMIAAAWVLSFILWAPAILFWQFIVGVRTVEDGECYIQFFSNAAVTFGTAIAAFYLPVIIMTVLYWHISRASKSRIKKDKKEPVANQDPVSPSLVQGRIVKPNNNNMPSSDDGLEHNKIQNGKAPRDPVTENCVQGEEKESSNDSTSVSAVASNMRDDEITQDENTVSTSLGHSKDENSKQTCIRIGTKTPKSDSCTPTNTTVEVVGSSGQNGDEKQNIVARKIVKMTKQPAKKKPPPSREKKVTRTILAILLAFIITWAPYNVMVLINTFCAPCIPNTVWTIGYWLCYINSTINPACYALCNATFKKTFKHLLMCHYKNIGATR

[3] = Lipophilicity, log D of the compound at pH 7.4; type: physicochemical; conditions: buffer
[4] = biological target: T2, Dipeptidyl peptidase 4 (Homo sapiens, UniProt P27487)
[5] = biological target: T2, Dipeptidyl peptidase 4; remark: listed apart in the source
Description: Binding affinity to human recombinant DPP4 (39 to 766 residues) by surface plasmon resonance analysis

[6] = Renal clearance in wild type mouse at 0.01 mg/kg, iv; type: ADME, organism-based; conditions: in vivo
[7] = Cmax in human plasma at 5 mg; type: ADME, cell-free; parameters: dose 5 mg
[8] = Renal clearance in DPP4 knockout mouse at 0.01 mg/kg, iv; type: ADME, organism-based; conditions: in vivo

T2 sequence (P27487 whole entry): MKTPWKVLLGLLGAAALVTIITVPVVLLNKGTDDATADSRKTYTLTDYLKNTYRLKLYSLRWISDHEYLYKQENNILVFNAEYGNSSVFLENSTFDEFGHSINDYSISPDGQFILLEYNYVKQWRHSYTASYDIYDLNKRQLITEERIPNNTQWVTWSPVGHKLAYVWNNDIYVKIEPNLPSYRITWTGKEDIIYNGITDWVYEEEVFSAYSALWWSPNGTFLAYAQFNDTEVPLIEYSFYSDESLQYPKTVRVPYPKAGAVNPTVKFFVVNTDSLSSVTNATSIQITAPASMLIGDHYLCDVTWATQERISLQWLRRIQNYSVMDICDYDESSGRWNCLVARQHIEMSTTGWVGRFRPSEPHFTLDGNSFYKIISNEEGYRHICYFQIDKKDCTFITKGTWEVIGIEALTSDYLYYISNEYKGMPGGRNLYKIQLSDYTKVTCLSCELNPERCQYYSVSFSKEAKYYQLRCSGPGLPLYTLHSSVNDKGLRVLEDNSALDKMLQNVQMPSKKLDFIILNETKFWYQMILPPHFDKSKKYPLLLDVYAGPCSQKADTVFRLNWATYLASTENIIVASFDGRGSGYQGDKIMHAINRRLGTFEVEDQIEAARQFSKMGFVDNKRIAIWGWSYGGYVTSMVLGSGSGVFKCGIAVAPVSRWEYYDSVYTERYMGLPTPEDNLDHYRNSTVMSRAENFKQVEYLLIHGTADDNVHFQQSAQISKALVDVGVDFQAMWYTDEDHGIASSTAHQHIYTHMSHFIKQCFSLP
Chain of Muscarinic acetylcholine receptor M3 (P20309 whole entry): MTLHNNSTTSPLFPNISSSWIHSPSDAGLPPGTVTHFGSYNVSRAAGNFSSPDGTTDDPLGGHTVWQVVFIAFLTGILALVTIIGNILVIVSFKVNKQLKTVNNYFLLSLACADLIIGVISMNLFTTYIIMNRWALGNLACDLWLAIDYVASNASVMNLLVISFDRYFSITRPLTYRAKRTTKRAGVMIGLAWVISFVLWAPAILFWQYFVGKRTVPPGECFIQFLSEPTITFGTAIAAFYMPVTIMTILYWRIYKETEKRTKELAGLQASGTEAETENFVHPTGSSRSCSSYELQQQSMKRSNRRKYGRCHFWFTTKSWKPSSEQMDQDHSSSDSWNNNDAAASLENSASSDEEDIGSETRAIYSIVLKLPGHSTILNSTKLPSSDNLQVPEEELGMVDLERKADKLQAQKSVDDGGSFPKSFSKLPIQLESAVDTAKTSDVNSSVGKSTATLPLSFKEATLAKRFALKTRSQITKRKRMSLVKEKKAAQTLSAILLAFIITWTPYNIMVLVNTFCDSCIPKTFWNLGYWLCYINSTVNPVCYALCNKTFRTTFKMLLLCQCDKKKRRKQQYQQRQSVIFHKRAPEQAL

IC50 [1]: 150 nM
IC50 [2]: 150 nM
logD [3]: 0 to 1.6
SMILES: CC(C)=CCn1c(N2CCC[C@H](N)C2)nc2c1c(=O)n(CC(=O)c1ccccc1)c(=O)n2C

logD [3]: 0 to 1.6
SMILES: Cn1c(=O)c2c(nc(N3CCCC(N)C3)n2Cc2ccccc2)n(C)c1=O (stereo unspecified)

Kd [4]: 246 nM
Kd [5]: 806 nM
logD [3]: 0 to 1.6
SMILES: O=c1[nH]c(=O)c2c(nc(N3CCNCC3)n2Cc2ccccc2)[nH]1

CL [6]: 2.7%
Cmax [7]: 10 nM
CL [8]: 24.2%
logD [3]: 0 to 1.6
SMILES: CC#CCn1c(N2CCC[C@@H](N)C2)nc2c1c(=O)n(Cc1nc(C)c3ccccc3n1)c(=O)n2C [LINAGLIPTIN]

Source: ChEMBL document CHEMBL4431324, “Comparative Analysis of Binding Kinetics and Thermodynamics of Dipeptidyl Peptidase-4 Inhibitors and Their Relationship to Structure” (J Med Chem, 2016)
